Measurements reported in patent US20240150286A1, “PEROXISOME PROLIFERATOR-ACTIVATED RECEPTOR GAMMA (PPARy) LIGANDS AND METHODS OF USE AS TREATMENTS FOR INSULIN RESISTANCE, OBESITY, FATTY LIVER DISEASE, AND TYPE 2 DIABETES” (The Board of Regents of the University of Oklahoma, priority 2022, published 2024).

Columns and labels:
human PPARγ2 = biological target: T1, human PPARγ2 (Homo sapiens, UniProt P37231); assay: PPARγ transactivation reporter assay (3×PPRE-luc) in HEK-293 cells; assay type: cell-based
T1 construct: host or cells: HEK-293
T1 sequence (P37231 1-505): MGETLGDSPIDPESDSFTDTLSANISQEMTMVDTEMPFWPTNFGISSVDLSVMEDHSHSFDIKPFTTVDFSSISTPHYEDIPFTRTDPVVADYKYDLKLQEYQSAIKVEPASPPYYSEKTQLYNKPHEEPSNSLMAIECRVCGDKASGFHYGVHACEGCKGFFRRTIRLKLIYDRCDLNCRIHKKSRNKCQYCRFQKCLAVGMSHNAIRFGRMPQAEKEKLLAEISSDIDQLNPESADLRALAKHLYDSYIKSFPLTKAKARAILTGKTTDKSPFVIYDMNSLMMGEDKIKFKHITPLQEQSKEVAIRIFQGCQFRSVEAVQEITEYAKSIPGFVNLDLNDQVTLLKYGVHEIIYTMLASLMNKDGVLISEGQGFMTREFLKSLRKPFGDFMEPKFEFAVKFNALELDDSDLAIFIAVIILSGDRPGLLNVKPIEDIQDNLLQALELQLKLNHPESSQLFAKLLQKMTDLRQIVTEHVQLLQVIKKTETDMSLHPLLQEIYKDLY
Protocol: HEK-293 cells were seeded overnight, co-transfected with plasmids expressing human PPARγ2 and 3×PPRE-luc (both from Addgene) followed by incubation for 16 h, and then re-seeded in a 384-well plate and incubated for 24 h. Compounds were added and then incubated another 24 h. Luciferase activity was analyzed in each well using Bright-Glo Luciferase kit (Promega).

3T3-L1 cells = assay: 3T3-L1 adipocyte differentiation (Oil Red O staining, adipogenic gene mRNA); assay type: cell-based, mouse
Protocol: 3T3-L1 preadipocytes were differentiated. In brief, cells at around 60%-70% confluence were induced for differentiation with DMEM containing 10% FBS, 1 μg/ml insulin, 1 μM dexamethasone, and 0.5 mM IBMX for 48 h in the presence or absence of compounds and were then exposed in maintenance medium (1 μg/mL insulin in 10% FBS/DMEM) containing compounds. The medium was renewed every 2 days for total 8 days of differentiation when the cells became differentiated and lipid droplets were apparent. For primary preadipocyte differentiation, isolation of primary preadipocytes was performed. Briefly, fat depots were digested in PBS containing collagenase D (1.5 U/ml) at 37° C. for 40-45 min. The primary cells were filtered through 70 μm cell strainer and centrifuge at 700 g to collect stromal vascular fraction (SVF). The SVF cell pellets were plated on collagen coated plates. […]
Total RNA (2 μg) was isolated from tissues or cells using TRIzol reagents (Life Technologies) and reverse transcribed using oligo d(T) primers (New England Biosystems) and SuperScript IV reverse transcription kit (Applied Biosystems). qPCR was performed in a CFX96 Touch Real-Time PCR detection system using SYBR Green mix (Applied Biosystems). […] Relative mRNA expression was determined by the ΔΔCt method normalized to TBP mRNA. […]

`Cc1c(C)n(Cc2ccc(-c3ccccc3C(=O)O)cc2)c2ccc(C(=O)NCc3cccc(O)c3)cc12` [WO95E, 4′-((5-((3-hydroxybenzyl)carbamoyl)-2,3-dimethyl-1H-indol-1-yl)methyl)-[1,1′-biphenyl]-2-carboxylic acid] was tested, and the “PPARγ transactivation reporter activation (in words)” value (human PPARγ2; HEK293, PPARγ2 + 3×PPRE-luc) was “increased the reporter activity only weakly”, the “3×PPRE-luc reporter activity as % of potency of Rosi” value (human PPARγ2; HEK293, PPARγ2 + 3×PPRE-luc, relative to Rosi) was roughly 15% and the “3×PPRE-luc reporter activity as % of potency of UHC1” value (human PPARγ2; HEK293, PPARγ2 + 3×PPRE-luc, relative to UHC1) was roughly 33%. The “3×PPRE reporter activation with GW9662 co-treatment” value (human PPARγ2; compound 10 μM, GW9662 5 μM, HEK293) was “retained its moderate ability to activate the reporter”, the “mRNA levels of adipogenic genes PPARγ, FABP4, Glut4, PEPCK, C/EBPa” value (3T3-L1 cells; 3T3-L1, compounds at 10 μM, qRT-PCR) was “only minimally or moderately increased” and the “Oil Red O staining / adipocyte differentiation” value (3T3-L1 cells; 3T3-L1, differentiation media, compounds at 10 μM) was “only marginally increased Oil Red O staining level”.
